Data on seven compounds can be found in patent US20220242846A1, “ISOINDOLINONE COMPOUNDS” (Monte Rosa Therapeutics AG, priority 2019, published 2022).

The target of one test is T1, ZFP91 (Homo sapiens, UniProt Q96JP5).
T1 construct: MM1S cells were purchased from ATCC (cat. Number CRL-2974); endogenous in cells; host or cells: MM1S (ATCC CRL-2974)
Description: Selectivity determination by Western Blot assay in MM1S cells: ZFP91. The class given is cell-based. Set-up: key: A represents a no degradation observed at 30 μM; B represents trace degradation at 30 μM (below 20%); C represents weak degradation at 30 μM (below 50%); D represents degradation at 30 μM (>90%); E represents degradation at 3 μM (>90%); F represents degradation at 0.3 μM (>90%). The conditions noted are these: MM1S cells, 0.3, 3 and 30 μM, 6 hours. As for the experimental part:
(§1) CK1alpha/Ikaros/Aiolos/ZFP91 Selectivity determination by Western Blot Assay
(§2) MM1S cells were purchased from ATCC (cat. Number CRL-2974), sub-cultured in 90% RPMI 1640 with 10% FBS, supplemented with 1× P/S and incubated at 37° C., 5% CO2. Compounds were stored as 10 mM DMSO stock. For the assay, MM1S cells (3 million cells/well) were plated in 6-well plates and incubated over night. Cells were treated with respective compounds using a serial dilution: 0.3 μM, 3 μM and 30 μM as well as a vehicle only (DMSO) control for 6 hours. Media with suspension cells was subsequently transferred to 15 mL conical tubes, wells rinsed twice with ice-cold PBS and merged with cell suspension in respective 15 mL conical tube. Cells were spinned down, supernatant aspirated, pellets resuspended in ice-cold PBS and transferred to microtubes. Cells were spinned down, supernatant aspirated and pellets resuspended in 120 μL RIPA lysis buffer supplemented with protease and phosphatase inhibitors. Cell lysates were incubated on ice for 20 minutes followed by centrifugation at >20,000×g for 5 mM. Supernatants were transferred to fresh microtubes and stored at −80° C. Total protein concentration was determined using a BCA assay with a BSA standard curve and concentration of all samples was adjusted to 1 mg/mL. 25 μL 4× LDS sample buffer supplemented with 100 mM DTT was added to 75 μL sample. Samples were centrifuged (8,000×g, 1 min) and incubated at 95° C. for […] followed by another centrifugation step (8,000×g, 1 mM). 20 μL of each sample was loaded on a 4-12% gel alongside a protein molecular weight marker. Gels were run in the presence of MOPS buffer at 80 Volts for […], followed by 120 Volts for 1.5 h and proteins subsequently transferred onto nitrocellulose membranes at 20 Volts for 7 mM using an iBlot2 Gel Transfer Device. Membranes were then cut horizontally into two pieces, covering 80-50 kDa and 50-25 kDa. Blocking the membranes was performed by gently shaking in 5% (w/v) skim milk in TSB-T for 1 hr at room temperature. All primary antibodies were used at a 1/1000 in 5% (w/v) BSA dissolved in TBST and incubated with membranes over night at 4° C. After three washes with 1× TBST for 5 mM, HRP-coupled secondary antibodies diluted in 5% (w/v) BSA/TBST (Goat Anti-Rb IgG, dil. 1/10,000; Goat Anti-Mouse IgG, dil. 1/5000) were added for 1 hr at room temperature. After three washes with 1× TBST (5 minutes each), membranes were incubated with ECL reagent for 1 mM at room temperature. Chemiluminescence signals were then detected using a LAS-4000 system with default settings and signals quantified using Image Studio Lite software (version 5.2). Membrane parts previously incubated with antibody against CK1alpha were stripped off antibodies by incubating with stripping buffer for 30 minutes followed by three washed with TBST (5 mM each), blocking with 5% (w/v) skim milk for 1 hr, and incubation with primary antibody against GAPDH overnight at 4° C. Subsequent washes, incubation with secondary antibody and signal acquisition were performed as described above.
(§3) Table 5 assigns each compound a code indicating the ability for the degradation of IKZF1, IKZF3, CK1alpha and ZFP91: A, B, C, D, E or F. According to the code, A represents a no degradation observed at 30 μM, B represents trace degradation at 30 μM (below 20%), C represents weak degradation at 30 μM (below 50%), D represents degradation at 30 μM (>90%), E represents degradation at 3 μM (>90%) and F represents degradation at 0.3 μM (>90%).
(A western blot detects proteins with antibodies after separation by electrophoresis.)

The target of the next test is T2, IKZF1 (Homo sapiens, UniProt Q13422).
T2 construct: MM1S cells were purchased from ATCC (cat. Number CRL-2974); endogenous in cells; host or cells: MM1S (ATCC CRL-2974)
Description: Selectivity determination by Western Blot assay in MM1S cells: IKZF1. The class given is cell-based. More on the design: key: A represents a no degradation observed at 30 μM; B represents trace degradation at 30 μM (below 20%); C represents weak degradation at 30 μM (below 50%); D represents degradation at 30 μM (>90%); E represents degradation at 3 μM (>90%); F represents degradation at 0.3 μM (>90%). Particulars: MM1S cells, 0.3, 3 and 30 μM, 6 hours. On the procedure:
as §1, §2, §3

Test [1] deals with T3, Full length wild-type cereblon CRBN (Homo sapiens, UniProt Q96SW2).
T3 construct: Full length wild-type cereblon CRBN (80.0 nM, 10 μL) was incubated in assay buffer
The test can be described thus: Fluorescence polarization (FP) assay indicating cereblon binding. Particulars: CRBN 80.0 nM, fluorescent probe 5 nM, FP measured after 12 hours; read-out: rFP IC50. The essentials:
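Full-length wild-type human CRBN (80.0 nM) preincubated 30 min at room temperature with compound (12-point curve, 300-0.937 or 3000-9.3 nM) in HEPES pH 8.0, NaCl, TCEP, Tween 20. Thalidomide-based Cy5-type probe then added at 5 nM final; FP read after 12 h (ex 590, em 675 nm), normalized to DMSO, IC50 derived.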
In general terms: In fluorescence polarisation assays a small probe gives low polarisation when free and higher when bound to something large.

A further test has as its target T4, IKZF3 (Homo sapiens, UniProt Q9UKT9).
T4 construct: MM1S cells were purchased from ATCC (cat. Number CRL-2974); endogenous in cells; host or cells: MM1S (ATCC CRL-2974)
Description: Selectivity determination by Western Blot assay in MM1S cells: IKZF3. The conditions noted are these: MM1S cells, 0.3, 3 and 30 μM, 6 hours. The class given is cell-based. Set-up: key: A represents a no degradation observed at 30 μM; B represents trace degradation at 30 μM (below 20%); C represents weak degradation at 30 μM (below 50%); D represents degradation at 30 μM (>90%); E represents degradation at 3 μM (>90%); F represents degradation at 0.3 μM (>90%). On the procedure: as §1, §2, §3

In general, pIC50 refers to −log10 of the IC50, conventionally taken in molar units.

pIC50: −log10 of the molar value.

T1 sequence (Q96SW2 whole entry partner): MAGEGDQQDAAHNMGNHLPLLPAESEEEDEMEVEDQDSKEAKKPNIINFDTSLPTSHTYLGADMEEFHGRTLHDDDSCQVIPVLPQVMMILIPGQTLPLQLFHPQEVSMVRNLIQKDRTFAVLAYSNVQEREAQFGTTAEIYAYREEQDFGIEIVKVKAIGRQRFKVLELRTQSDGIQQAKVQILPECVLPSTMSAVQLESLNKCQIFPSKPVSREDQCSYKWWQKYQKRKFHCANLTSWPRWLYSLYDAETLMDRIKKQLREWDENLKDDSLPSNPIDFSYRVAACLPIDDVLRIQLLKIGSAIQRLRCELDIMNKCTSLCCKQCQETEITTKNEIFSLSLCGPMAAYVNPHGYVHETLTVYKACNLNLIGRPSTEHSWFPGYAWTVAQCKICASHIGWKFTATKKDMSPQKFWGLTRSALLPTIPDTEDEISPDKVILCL
T1 sequence (Q16531 2-1140 partner limits assumed): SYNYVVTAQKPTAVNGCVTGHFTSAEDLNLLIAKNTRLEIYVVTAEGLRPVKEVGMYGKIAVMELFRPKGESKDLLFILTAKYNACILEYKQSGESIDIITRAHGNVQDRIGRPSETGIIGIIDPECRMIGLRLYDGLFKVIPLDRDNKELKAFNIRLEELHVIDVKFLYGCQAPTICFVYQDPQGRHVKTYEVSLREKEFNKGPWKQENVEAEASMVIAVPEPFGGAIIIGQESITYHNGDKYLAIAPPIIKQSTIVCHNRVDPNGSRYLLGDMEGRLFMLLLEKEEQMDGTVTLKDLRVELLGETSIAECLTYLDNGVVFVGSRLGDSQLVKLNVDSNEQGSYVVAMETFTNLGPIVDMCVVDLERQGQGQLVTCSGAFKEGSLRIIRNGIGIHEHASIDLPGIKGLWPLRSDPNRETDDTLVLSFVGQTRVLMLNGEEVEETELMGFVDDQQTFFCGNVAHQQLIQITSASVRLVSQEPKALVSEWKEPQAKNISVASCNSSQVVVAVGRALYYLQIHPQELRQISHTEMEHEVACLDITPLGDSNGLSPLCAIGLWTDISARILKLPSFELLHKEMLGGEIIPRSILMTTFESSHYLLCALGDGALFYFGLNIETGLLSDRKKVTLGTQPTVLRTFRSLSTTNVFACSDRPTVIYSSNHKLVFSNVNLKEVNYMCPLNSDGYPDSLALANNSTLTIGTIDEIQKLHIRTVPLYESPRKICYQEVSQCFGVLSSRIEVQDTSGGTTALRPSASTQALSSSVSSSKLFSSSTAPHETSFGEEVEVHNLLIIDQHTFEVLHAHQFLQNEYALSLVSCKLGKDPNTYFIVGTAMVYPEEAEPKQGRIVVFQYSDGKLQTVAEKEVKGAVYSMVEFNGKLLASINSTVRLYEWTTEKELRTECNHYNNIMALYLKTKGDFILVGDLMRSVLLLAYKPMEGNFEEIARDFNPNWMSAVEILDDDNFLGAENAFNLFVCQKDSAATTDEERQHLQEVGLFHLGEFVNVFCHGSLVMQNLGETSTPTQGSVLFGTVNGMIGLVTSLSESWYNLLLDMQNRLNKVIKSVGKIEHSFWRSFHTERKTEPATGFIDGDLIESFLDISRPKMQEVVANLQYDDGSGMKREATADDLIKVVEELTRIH
T1 sequence (Q96JP5 2-570 limits assumed): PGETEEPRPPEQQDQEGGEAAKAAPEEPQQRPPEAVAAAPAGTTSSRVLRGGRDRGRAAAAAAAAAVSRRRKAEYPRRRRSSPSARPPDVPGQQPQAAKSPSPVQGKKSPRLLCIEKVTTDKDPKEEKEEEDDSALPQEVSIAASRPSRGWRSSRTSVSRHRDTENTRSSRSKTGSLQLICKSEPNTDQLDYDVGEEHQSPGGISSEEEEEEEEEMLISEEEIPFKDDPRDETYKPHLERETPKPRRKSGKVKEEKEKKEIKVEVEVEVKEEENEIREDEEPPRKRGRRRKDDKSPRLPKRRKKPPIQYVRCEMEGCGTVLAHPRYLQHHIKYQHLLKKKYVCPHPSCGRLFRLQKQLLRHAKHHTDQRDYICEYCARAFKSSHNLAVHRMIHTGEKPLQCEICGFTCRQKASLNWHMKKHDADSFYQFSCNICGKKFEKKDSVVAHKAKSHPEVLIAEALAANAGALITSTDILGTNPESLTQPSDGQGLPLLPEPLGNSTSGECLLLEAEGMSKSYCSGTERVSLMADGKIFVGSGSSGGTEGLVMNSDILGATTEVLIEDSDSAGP
T4 sequence (Q96SW2 whole entry partner): as the sequence (Q96SW2 whole entry partner) above
T4 sequence (Q16531 2-1140 partner limits assumed): as the sequence (Q16531 2-1140 partner limits assumed) above
T4 sequence (Q9UKT9 whole entry): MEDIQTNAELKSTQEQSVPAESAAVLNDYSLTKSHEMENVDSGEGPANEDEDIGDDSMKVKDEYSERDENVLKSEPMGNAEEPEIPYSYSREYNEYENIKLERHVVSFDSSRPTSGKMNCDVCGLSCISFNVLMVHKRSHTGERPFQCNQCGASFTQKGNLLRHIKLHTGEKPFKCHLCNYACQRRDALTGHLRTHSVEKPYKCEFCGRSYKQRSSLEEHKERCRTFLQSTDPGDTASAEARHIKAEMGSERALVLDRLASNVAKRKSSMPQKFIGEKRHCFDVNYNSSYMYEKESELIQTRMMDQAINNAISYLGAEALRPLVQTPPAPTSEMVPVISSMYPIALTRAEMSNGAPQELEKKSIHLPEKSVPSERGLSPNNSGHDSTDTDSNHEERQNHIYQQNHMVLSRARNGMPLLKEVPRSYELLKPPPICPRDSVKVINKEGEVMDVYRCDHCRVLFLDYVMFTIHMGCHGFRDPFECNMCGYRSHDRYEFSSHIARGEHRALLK
T3 sequence (Q96SW2 whole entry): as the sequence (Q96SW2 whole entry partner) above
T2 sequence (Q96SW2 whole entry partner): as above
T2 sequence (Q16531 2-1140 partner limits assumed): as the sequence (Q16531 2-1140 partner limits assumed) above
T2 sequence (Q13422 whole entry): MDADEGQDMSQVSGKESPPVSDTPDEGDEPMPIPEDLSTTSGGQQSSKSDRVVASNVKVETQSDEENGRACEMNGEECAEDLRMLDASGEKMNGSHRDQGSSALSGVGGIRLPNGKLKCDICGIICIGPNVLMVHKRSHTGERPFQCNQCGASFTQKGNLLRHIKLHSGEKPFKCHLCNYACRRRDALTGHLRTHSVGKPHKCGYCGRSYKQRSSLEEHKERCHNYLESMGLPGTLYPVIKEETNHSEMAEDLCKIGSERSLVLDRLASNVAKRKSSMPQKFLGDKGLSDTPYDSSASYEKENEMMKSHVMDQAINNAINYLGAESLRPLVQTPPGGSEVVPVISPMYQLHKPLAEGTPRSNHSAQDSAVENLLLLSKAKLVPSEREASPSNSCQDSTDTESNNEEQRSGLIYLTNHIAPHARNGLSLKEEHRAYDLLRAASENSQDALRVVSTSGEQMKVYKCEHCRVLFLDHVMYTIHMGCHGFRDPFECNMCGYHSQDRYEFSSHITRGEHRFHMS

`Cc1ccc(NC(=O)NCc2ccc3c(c2)C(=O)N(C2CCC(=O)NC2=O)C3)cc1Cl` (stereo not shown) [Compound 8]: on ZFP91, the ZFP91 degradation code result was “B (B represents trace degradation at 30 μM (below 20%))”. On IKZF1, the IKZF1 degradation code result was “A”. In addition, the pIC50 in test [1] is 6.33. Moreover, at IKZF3, the IKZF3 degradation code result was “B (B represents trace degradation at 30 μM (below 20%))”.

Regarding `Cc1c(Cl)cc(NC(=O)NCc2ccc3c(c2)C(=O)N(C2CCC(=O)NC2=O)C3)cc1CC1COCOC1` (stereo not shown) [Compound 132], the ZFP91 degradation code result on ZFP91 is reported as “C (C represents weak degradation at 30 μM (below 50%))”. At IKZF1, the IKZF1 degradation code result is “A”. In addition, in test [1], the pIC50 was 6.42. For the same compound, the IKZF3 degradation code entry at IKZF3 was “A”.

As to `Cc1c(Cl)cc(NC(=O)NCc2ccc3c(c2)C(=O)N(C2CCC(=O)NC2=O)C3)cc1CN(C)C` (stereo not shown) [Compound 75], the ZFP91 degradation code entry at ZFP91 is given as “A”. Moreover, the IKZF1 degradation code result at IKZF1 is “A”. Further, the pIC50 in test [1] is 6.55. Moreover, the IKZF3 degradation code entry at IKZF3 was “A”.

`Cc1c(Cl)cc(NC(=O)NCc2ccc3c(c2)C(=O)N(C2CCC(=O)NC2=O)C3)cc1CN1CCOCC1` (stereo not shown) [Compound 82]: at ZFP91, the ZFP91 degradation code result was “A”. Also, on IKZF1, the IKZF1 degradation code result was “A”. In test [1], the pIC50 was 6.43. For the same compound, the IKZF3 degradation code result on IKZF3 is “A”.

As to `O=C1CCC(N2Cc3ccc(CNC(=O)Nc4cccc(CN5CCOCC5)c4)cc3C2=O)C(=O)N1` (stereo not shown) [Compound 105], the ZFP91 degradation code entry at ZFP91 is recorded as “B (B represents trace degradation at 30 μM (below 20%))”. For the same compound, the IKZF1 degradation code entry on IKZF1 is reported as “B (B represents trace degradation at 30 μM (below 20%))”. In addition, the pIC50 in test [1] was 6.53. Besides, the IKZF3 degradation code result at IKZF3 is on record as “A”.

Consider `Cc1ccc(NC(=O)NCc2ccc3c(c2)C(=O)N(C2CCC(=O)NC2=O)C3)c(Cl)c1Cl` (stereo not shown) [Compound 87], for which the ZFP91 degradation code result at ZFP91 was “A”. For the same compound, the IKZF1 degradation code entry at IKZF1 is “A”. Also, the pIC50 in test [1] was 6.56. For the same compound, on IKZF3, the IKZF3 degradation code entry was “A”.

Take `Cc1cc(C)c(NC(=O)NCc2ccc3c(c2)C(=O)N(C2CCC(=O)NC2=O)C3)cc1Cl` (stereo not shown) [Compound 85]: the ZFP91 degradation code entry at ZFP91 was “A”. Besides, the IKZF1 degradation code result on IKZF1 was “A”. In addition, the pIC50 in test [1] was 6.67. Besides, the IKZF3 degradation code entry on IKZF3 is reported as “A”.
